Columns and labels:
[1] = tested on: Danio rerio embryo
Experimental: (§1)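 Zebrafish embryos (UFZ-OBI strain) were exposed from 2 hpf for 48 h (2 dpf) or 96 h (4 dpf) at 28 °C; spontaneous tail coiling was scored at 25 hpf. Morphological features from automated image analysis (FishInspector), heart rate and locomotor response were fitted with drc models. Quantal endpoints were dichotomised at 2.5 SD from controls and fitted with a log-logistic model; heart rate, pigmentation and STC were normalised to the replicate control mean. Betamethasone was tested as betamethasone dipropionate, diflorasone as diflorasone diacetate.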

[2] = tested on: Danio rerio embryo; conditions: exposure time: 4 dpf
Experimental: as §1

[3] = tested on: Danio rerio embryo; test: EC50 Curvature_Increase
Experimental: as §1

[4] = tested on: Danio rerio embryo; test: EC50 Body length_Decrease
Experimental: as §1

[5] = tested on: Danio rerio embryo; test: EC50 Bladder size_Decrease; conditions: exposure time: 4 dpf
Experimental: as §1

[6] = tested on: Danio rerio embryo; test: EC50 Pericard size_Increase
Experimental: as §1

[7] = tested on: Danio rerio embryo; test: EC50 Yolk sac size_Increase; conditions: exposure time: 4 dpf
Experimental: as §1

[8] = tested on: Danio rerio embryo; test: EC50 Eye-jaw distance_Decrease; conditions: exposure time: 4 dpf
Experimental: as §1

[9] = tested on: Danio rerio embryo; test: EC50 Otolith-eye distance_Decrease; conditions: exposure time: 4 dpf
Experimental: as §1

[10] = tested on: Danio rerio embryo; test: EC10 LMR dark; higher = less potent; conditions: exposure time: 4 dpf
Experimental: as §1

[11] = tested on: Danio rerio embryo; test: EC20 LMR dark; higher = less potent; conditions: exposure time: 4 dpf
Experimental: as §1

[12] = tested on: Danio rerio embryo; test: EC20 Any effect; higher = less potent
Experimental: as §1

[13] = tested on: Danio rerio embryo; test: EC10 Any effect; higher = less potent
Experimental: as §1

[14] = tested on: Danio rerio embryo; test: EC10 Curvature_Increase; higher = less potent
Experimental: as §1

[15] = tested on: Danio rerio embryo; test: EC20 Curvature_Increase; higher = less potent
Experimental: as §1

[16] = tested on: Danio rerio embryo; test: EC20 Body length_Decrease; higher = less potent
Experimental: as §1

[17] = tested on: Danio rerio embryo; test: EC10 Body length_Decrease; higher = less potent
Experimental: as §1

[18] = tested on: Danio rerio embryo; test: EC10 Bladder size_Decrease; higher = less potent; conditions: exposure time: 4 dpf
Experimental: as §1

[19] = tested on: Danio rerio embryo; test: EC20 Bladder size_Decrease; higher = less potent; conditions: exposure time: 4 dpf
Experimental: as §1

[20] = tested on: Danio rerio embryo; test: EC20 Yolk sac size_Increase; higher = less potent; conditions: exposure time: 4 dpf
Experimental: as §1

[21] = tested on: Danio rerio embryo; test: EC20 Pericard size_Increase; higher = less potent
Experimental: as §1

[22] = tested on: Danio rerio embryo; test: EC10 Yolk sac size_Increase; higher = less potent; conditions: exposure time: 4 dpf
Experimental: as §1

[23] = tested on: Danio rerio embryo; test: EC10 Pericard size_Increase; higher = less potent
Experimental: as §1

[24] = tested on: Danio rerio embryo; test: EC20 Eye-jaw distance_Decrease; higher = less potent; conditions: exposure time: 4 dpf
Experimental: as §1

[25] = tested on: Danio rerio embryo; test: EC10 Eye-jaw distance_Decrease; higher = less potent; conditions: exposure time: 4 dpf
Experimental: as §1

[26] = tested on: Danio rerio embryo; test: EC20 Otolith-eye distance_Decrease; higher = less potent; conditions: exposure time: 4 dpf
Experimental: as §1

[27] = tested on: Danio rerio embryo; test: EC10 Otolith-eye distance_Decrease; higher = less potent; conditions: exposure time: 4 dpf
Experimental: as §1

[28] = tested on: Danio rerio embryo; test: spontaneous tail coiling frequency (coils/min/embryo); higher = more spontaneous movement; conditions: 25 hpf
Experimental: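 Spontaneous tail coilings of zebrafish embryos exposed from 2 hpf were recorded at 24-25 hpf in 1-min videos and detected by a KNIME workflow from grey-value variance. Betamethasone was tested as the dipropionate, diflorasone as the diacetate.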

Cc1ccc(-c2cc(C(F)(F)F)nn2-c2ccc(S(N)(=O)=O)cc2)cc1 [Celecoxib]
Conditions	EC10 Any effect [µM]	EC10 Body length Decrease [µM]	EC10 Curvature Increase [µM]	EC10 Pericard size Increase [µM]	EC20 Any effect [µM]	EC20 Body length Decrease [µM]	EC20 Curvature Increase [µM]	EC20 Pericard size Increase [µM]	EC50 Any effect [µM]	EC50 Body length Decrease [µM]	EC50 Curvature Increase [µM]	EC50 Pericard size Increase [µM]	EC50 STC bell shape [µM]	spontaneous tail coiling frequency
[1], exposure time: 2 dpf	–	–	–	–	–	–	–	–	13.9	–	–	–	–	–
[1], exposure time: 4 dpf	–	–	–	–	–	–	–	–	8.13	–	–	–	–	–
[1], exposure time: 25 h	–	–	–	–	–	–	–	–	–	–	–	–	32.2	–
[3], exposure time: 2 dpf	–	–	–	–	–	–	–	–	–	–	31.6	–	–	–
[3], exposure time: 4 dpf	–	–	–	–	–	–	–	–	–	–	21.1	–	–	–
[4], exposure time: 2 dpf	–	–	–	–	–	–	–	–	–	25.2	–	–	–	–
[4], exposure time: 4 dpf	–	–	–	–	–	–	–	–	–	13.6	–	–	–	–
[6], exposure time: 2 dpf	–	–	–	–	–	–	–	–	–	–	–	13.3	–	–
[6], exposure time: 4 dpf	–	–	–	–	–	–	–	–	–	–	–	14.1	–	–
[12], exposure time: 2 dpf	–	–	–	–	7.05	–	–	–	–	–	–	–	–	–
[12], exposure time: 4 dpf	–	–	–	–	2.94	–	–	–	–	–	–	–	–	–
[13], exposure time: 2 dpf	4.74	–	–	–	–	–	–	–	–	–	–	–	–	–
[13], exposure time: 4 dpf	1.62	–	–	–	–	–	–	–	–	–	–	–	–	–
[14], exposure time: 2 dpf	–	–	29.8	–	–	–	–	–	–	–	–	–	–	–
[14], exposure time: 4 dpf	–	–	12.3	–	–	–	–	–	–	–	–	–	–	–
[15], exposure time: 2 dpf	–	–	–	–	–	–	30.5	–	–	–	–	–	–	–
[15], exposure time: 4 dpf	–	–	–	–	–	–	15	–	–	–	–	–	–	–
[16], exposure time: 2 dpf	–	–	–	–	–	21.9	–	–	–	–	–	–	–	–
[16], exposure time: 4 dpf	–	–	–	–	–	10.2	–	–	–	–	–	–	–	–
[17], exposure time: 2 dpf	–	20.1	–	–	–	–	–	–	–	–	–	–	–	–
[17], exposure time: 4 dpf	–	8.57	–	–	–	–	–	–	–	–	–	–	–	–
[21], exposure time: 2 dpf	–	–	–	–	–	–	–	6.48	–	–	–	–	–	–
[21], exposure time: 4 dpf	–	–	–	–	–	–	–	9.76	–	–	–	–	–	–
[23], exposure time: 2 dpf	–	–	–	4.26	–	–	–	–	–	–	–	–	–	–
[23], exposure time: 4 dpf	–	–	–	7.87	–	–	–	–	–	–	–	–	–	–
[28], 5 µM	–	–	–	–	–	–	–	–	–	–	–	–	–	2.65
[28], 8.3 µM	–	–	–	–	–	–	–	–	–	–	–	–	–	2.21
[28], 10 µM	–	–	–	–	–	–	–	–	–	–	–	–	–	2.87
[28], 16.5 µM	–	–	–	–	–	–	–	–	–	–	–	–	–	2.73
[28], 17.5 µM	–	–	–	–	–	–	–	–	–	–	–	–	–	1.93
[28], 24.8 µM	–	–	–	–	–	–	–	–	–	–	–	–	–	2.06
[28], 25 µM	–	–	–	–	–	–	–	–	–	–	–	–	–	2.15
[28], 32.5 µM	–	–	–	–	–	–	–	–	–	–	–	–	–	1.08
[28], 33 µM	–	–	–	–	–	–	–	–	–	–	–	–	–	1.78
[28], 40 µM	–	–	–	–	–	–	–	–	–	–	–	–	–	0.12

Conditions	EC10 Bladder size Decrease [µM]	EC10 Eye-jaw distance Decrease [µM]	EC10 LMR dark [µM]	EC10 Otolith-eye distance Decrease [µM]	EC10 Yolk sac size Increase [µM]	EC20 Bladder size Decrease [µM]	EC20 Eye-jaw distance Decrease [µM]	EC20 LMR dark [µM]	EC20 Otolith-eye distance Decrease [µM]	EC20 Yolk sac size Increase [µM]	EC50 Bladder size Decrease [µM]	EC50 Eye-jaw distance Decrease [µM]	EC50 LMR dark [µM]	EC50 Otolith-eye distance Decrease [µM]	EC50 Yolk sac size Increase [µM]
[2]	–	–	–	–	–	–	–	–	–	–	–	–	13	–	–
[5]	–	–	–	–	–	–	–	–	–	–	8.8	–	–	–	–
[7]	–	–	–	–	–	–	–	–	–	–	–	–	–	–	17.6
[8]	–	–	–	–	–	–	–	–	–	–	–	15.9	–	–	–
[9]	–	–	–	–	–	–	–	–	–	–	–	–	–	21.4	–
[10]	–	–	8.51	–	–	–	–	–	–	–	–	–	–	–	–
[11]	–	–	–	–	–	–	–	9.94	–	–	–	–	–	–	–
[18]	7.91	–	–	–	–	–	–	–	–	–	–	–	–	–	–
[19]	–	–	–	–	–	8.23	–	–	–	–	–	–	–	–	–
[20]	–	–	–	–	–	–	–	–	–	11.4	–	–	–	–	–
[22]	–	–	–	–	8.88	–	–	–	–	–	–	–	–	–	–
[24]	–	–	–	–	–	–	11.8	–	–	–	–	–	–	–	–
[25]	–	9.89	–	–	–	–	–	–	–	–	–	–	–	–	–
[26]	–	–	–	–	–	–	–	–	16.8	–	–	–	–	–	–
[27]	–	–	–	14.6	–	–	–	–	–	–	–	–	–	–	–
